The target in this assay is Lysophosphatidic acid receptor 1 (Homo sapiens, UniProt Q92633). As to the kind of experiment: Antagonist activity at human LPA1 expressed in CHO cells assessed as reduction in LPA-induced calcium influx incubated for 20 mins. It is filed as functional, cell-based.

As a reminder, the IC50 is the concentration that gives 50% inhibition.

Lysophosphatidic acid receptor 1, sequence (Q92633 whole entry): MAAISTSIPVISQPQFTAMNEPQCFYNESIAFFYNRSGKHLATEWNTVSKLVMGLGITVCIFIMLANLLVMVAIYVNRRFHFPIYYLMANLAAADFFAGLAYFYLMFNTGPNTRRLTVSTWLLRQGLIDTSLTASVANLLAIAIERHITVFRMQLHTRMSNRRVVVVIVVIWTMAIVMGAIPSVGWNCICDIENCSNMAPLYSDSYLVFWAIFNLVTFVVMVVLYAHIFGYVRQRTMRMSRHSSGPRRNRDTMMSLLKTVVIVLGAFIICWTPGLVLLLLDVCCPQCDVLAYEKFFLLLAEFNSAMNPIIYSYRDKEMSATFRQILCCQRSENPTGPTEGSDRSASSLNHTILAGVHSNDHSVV

On to `Cc1noc(-c2ccc(O[C@H]3CCC[C@H](C(=O)O)C3)cc2)c1CNC(=O)OCc1ccc(Cl)cc1`, for which the IC50 is 227 nM.

Values taken from ChEMBL document CHEMBL4364353, “Lysophosphatidic Acid Receptor 1 Antagonists for the Treatment of Fibrosis” (ACS Med Chem Lett, 2019).
